Experimental findings from article PMC6934184, “Selective DNA-PKcs inhibition extends the therapeutic index of localized radiotherapy and chemotherapy” (The Journal of Clinical Investigation, 2019) are described below.

The experiment concerns the target T1, FGFR2 (Homo sapiens, UniProt P21802).
T1 construct: purchased Thermo Fisher Scientific (Life Technologies) SelectScreen
In words: SelectScreen Z'LYTE. The class given is biochemical. In short, it runs like this:
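NU5455 was profiled across the SelectScreen Broad panel of kinase activity and binding assays. Z'LYTE reactions such as CSF1R ran at apparent Km ATP, while the Adapta CAMK1 assay used ATP listed as 10. Values are given as percent.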

T1 sequence (P21802 22-821): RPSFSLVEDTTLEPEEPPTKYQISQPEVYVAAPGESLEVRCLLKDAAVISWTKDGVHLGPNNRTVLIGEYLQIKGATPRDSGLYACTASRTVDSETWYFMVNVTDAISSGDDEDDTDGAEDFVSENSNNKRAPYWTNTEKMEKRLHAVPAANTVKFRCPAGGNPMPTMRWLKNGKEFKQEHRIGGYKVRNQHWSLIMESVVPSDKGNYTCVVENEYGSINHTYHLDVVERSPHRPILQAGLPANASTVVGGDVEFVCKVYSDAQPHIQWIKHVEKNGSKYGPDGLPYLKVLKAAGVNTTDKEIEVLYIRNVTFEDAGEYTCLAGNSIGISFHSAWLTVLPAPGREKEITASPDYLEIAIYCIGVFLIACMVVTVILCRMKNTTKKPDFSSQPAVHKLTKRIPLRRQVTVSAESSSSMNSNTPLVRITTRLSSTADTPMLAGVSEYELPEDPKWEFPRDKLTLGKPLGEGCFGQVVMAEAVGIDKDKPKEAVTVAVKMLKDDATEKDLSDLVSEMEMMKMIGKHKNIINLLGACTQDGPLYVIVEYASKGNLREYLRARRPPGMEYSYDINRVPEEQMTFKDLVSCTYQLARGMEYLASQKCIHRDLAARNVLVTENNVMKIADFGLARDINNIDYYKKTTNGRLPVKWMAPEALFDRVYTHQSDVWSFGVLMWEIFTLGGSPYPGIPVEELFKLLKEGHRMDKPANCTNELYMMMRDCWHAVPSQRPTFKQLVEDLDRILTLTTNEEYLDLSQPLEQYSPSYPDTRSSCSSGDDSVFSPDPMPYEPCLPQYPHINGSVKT

On to `CN(C(=O)CN1CCOCC1)c1ccc2sc3c(-c4cccc5c(=O)cc(N6CC7CCC(C6)O7)oc45)cccc3c2c1` [NU5455], for which testing at 1 µM gave an inhibition of 0%.

By inhibition is commonly meant the drop in the measured response relative to a control, in per cent. A low value points to little suppression.
